Results from patent US7763648B2, “Oxa-steroids derivatives as selective progesterone receptor modulators” (Janssen Pharmaceutica N.V., priority 2006, dated 2010).
pIC50: −log10 of the molar value.

Tests used:
[1] = system: T47D human breast cancer cells; experiment: T47D Human Breast Cancer Cells Assay (alkaline phosphatase); assay type: cell-based; details: 24 h with test compound, luminescence
Experimental: T47D Human Breast Cancer Cells Assay
T47D human breast cancer cells were grown in RPMI medium without phenol red (Invitrogen) containing 10% (v/v) heat-inactivated fetal bovine serum (FBS; Hyclone), 1% (v/v) penicillin-streptomycin (Invitrogen), 1% (w/v) glutamine (Invitrogen), and […] insulin (Sigma). Incubation conditions were 37° C. in a humidified 5% (v/v) carbon dioxide environment.
The cells were plated in 96-well tissue culture plates at 10,000 cells per well in assay medium [RPMI medium without phenol red (Invitrogen) containing 5% (v/v) charcoal-treated FBS (Hyclone) and 1% (v/v) penicillin-streptomycin (Invitrogen)]. Two days later, the medium was decanted and test compound or control were added at a final concentration of 0.1% (v/v) dimethyl sulfoxide in fresh assay medium. Twenty-four hours later, an alkaline phosphatase assay was performed using a SEAP kit (BD Biosciences Clontech, Palo Alto, Calif.). Briefly, the medium was decanted and the cells were fixed for 30 minutes at room temperature with 5% (v/v) formalin (Sigma). The cells were washed once with room temperature Hank's buffered saline solution (Invitrogen). Equal volumes (0.05 mL) of 1× Dilution Buffer, Assay Buffer and 1:20 substrate/enhancer mixture were then added. After 1 hour incubation at room temperature in the dark, the lysate was transferred to a white 96-well plate (Dynex) and luminescence was read using a LuminoSkan Ascent (Thermo Electron, Woburn, Mass.).

[2] = system: A549 Human lung carcinoma cells; experiment: A549 Human Lung Cell Assay (transfected, dexamethasone challenge, Luc-assay); assay type: cell-based; details: Dexamathasone challenge, 24 h
Experimental: A549 Human Lung Cell Assay
A549 Human lung carcinoma cells were grown in F-12K Nutrient Mixture containing 10% (v/v) fetal bovine serum (FBS; Invitrogen), 2 mM glutamine and 0.15% sodium dicarbonate (Invitrogen).
A549 cells were split 1 to 3 in 175 cm tissue culture flask. The cells were incubated at 37° C. in CO2 incubator until the cells were 95% confluent (typically 24-30 hours).
The following solutions were prepared in sterile tubes: (a) Solution A: 1.5 μg/ml of DNA in 8.5 ml OPTI-MEM I Reduced Serum Medium. (GIBCO cat# 31985) and (b) Solution B: 6 μl/ml of DMRIE-C Reagent into […] OPTI-MEM I. The two solutions were combined and mixed gently, then incubated at room temperature for 40 minutes.
The A549 cells prepared above were washed with […] of OPTI-MEM I. The medium was removed and 17 ml of the lipid-DNA complex solution was overlayed onto cells. The cells ere then incubated for 16 h at 37° C. in CO2 incubator. The DNA-containing medium was removed and 30 ml of growth medium was added. (5% Charcoal treated FBS) After 5-6 h, the cells were seeded in a 96 well plate and the cells incubated overnight at 37° C. in CO2 incubator.
To each well was then added 5 μl of test compounds and the cells incubated at 37° C. for 10 min. 5 μL of Dexamathasone (CAS [50-02-2]), was then added to each well for challenger and the cells incubated at 37° C. in CO2 incubator for 24 h. 100 μl of Luc-assay buffer was then added into each cell well and the cells incubated for 30 min at room temperature. A 150 μL sample from each well was then transferred into a DYNEX Microlitel plate and read on Top-counter.

C#C[C@]1(O)CC[C@H]2[C@@H]3OCC4=CC(=O)CCC4=C3C(c3ccc(N(C)C)cc3)C[C@@]21C (stereo in doubt) [Compound 4, 11-(4-Dimethylamino-phenyl)-17-ethynyl-17-hydroxy-13-methyl-1,2,8,11,12,13,14,15,16,17-decahydro-6H-7-oxa-cyclopenta[a]phenanthren-3-one]
pIC50 [1]: 7.72
pIC50 [2]: 6.69

CN(C)c1ccc(C2C[C@@]3(C)[C@@H](CC[C@@]3(O)C#CC(C)(C)C)[C@@H]3OCC4=CC(=O)CCC4=C23)cc1 (stereo in doubt) [Compound 5, 11-(4-Dimethylamino-phenyl)-17-(3,3-dimethyl-but-1-ynyl)-17-hydroxy-13-methyl-1,2,8,11,12,13,14,15,16,17-decahydro-6H-7-oxa-cyclopenta[a]phenanthren-3-one]
pIC50 [1]: 6.73
pIC50 [2]: 6.78

CN(C)c1ccc(C2C[C@@]3(C)[C@@H](CC[C@@]3(O)C#CC(C)(C)O)[C@@H]3OCC4=CC(=O)CCC4=C23)cc1 (stereo in doubt) [Compound 6, 11-(4-Dimethylamino-phenyl)-17-hydroxy-17-(3-hydroxy-3-methyl-but-1-ynyl)-13-methyl-1,2,8,11,12,13,14,15,16,17-decahydro-6H-7-oxa-cyclopenta[a]phenanthren-3-one]
pIC50 [1]: < 6.00
pIC50 [2]: 6.25

CN(C)c1ccc(C2C[C@@]3(C)[C@@H](CC[C@@]3(O)C#Cc3ccc(C(C)(C)C)cc3)[C@@H]3OCC4=CC(=O)CCC4=C23)cc1 (stereo in doubt) [Compound 10, 17-(4-tert-Butyl-phenylethynyl)-11-(4-dimethylamino-phenyl)-17-hydroxy-13-methyl-1,2,8,11,12,13,14,15,16,17-decahydro-6H-7-oxa-cyclopenta[a]phenanthren-3-one]
pIC50 [1]: 7.71
pIC50 [2]: 7.18

CN(C)c1ccc(C2C[C@@]3(C)[C@@H](CC[C@@]3(O)C#CC(F)(F)F)[C@@H]3OCC4=CC(=O)CCC4=C23)cc1 (stereo in doubt) [Compound 13, 11-(4-Dimethylamino-phenyl)-17-hydroxy-13-methyl-17-trifluoroprop-1-ynyl-1,2,8,11,12,13,14,15,16,17-decahydro-6H-7-oxa-cyclopenta[a]phenanthren-3-one]
pIC50 [1]: 7.73
pIC50 [2]: 7.26

CN(C)c1ccc(C2C[C@@]3(C)[C@@H](CC[C@@]3(O)C#Cc3ccccn3)[C@@H]3OCC4=CC(=O)CCC4=C23)cc1 (stereo in doubt) [Compound 26, 11-(4-Dimethylamino-phenyl)-17-hydroxy-13-methyl-17-pyridin-2-ylethynyl-1,2,8,11,12,13,14,15,16,17-decahydro-6H-7-oxa-cyclopenta[a]phenanthren-3-one]
pIC50 [1]: 7.47
pIC50 [2]: 6.76

CN(C)c1ccc(C2C[C@@]3(C)[C@@H](CC[C@@]3(O)C#Cc3cccnc3)[C@@H]3OCC4=CC(=O)CCC4=C23)cc1 (stereo in doubt) [Compound 27, 11-(4-Dimethylamino-phenyl)-17-hydroxy-13-methyl-17-pyridin-3-ylethynyl-1,2,8,11,12,13,14,15,16,17-decahydro-6H-7-oxa-cyclopenta[a]phenanthren-3-one]
pIC50 [1]: 7.68
pIC50 [2]: 6.47

CN(C)c1ccc(C2C[C@@]3(C)[C@@H](CC[C@@]3(O)C#Cc3ccncc3)[C@@H]3OCC4=CC(=O)CCC4=C23)cc1 (stereo in doubt) [Compound 28, 11-(4-Dimethylamino-phenyl)-17-hydroxy-13-methyl-17-pyridin-4-ylethynyl-1,2,8,11,12,13,14,15,16,17-decahydro-6H-7-oxa-cyclopenta[a]phenanthren-3-one]
pIC50 [1]: 7.41
pIC50 [2]: 6.61

COCC#C[C@]1(O)CC[C@H]2[C@@H]3OCC4=CC(=O)CCC4=C3C(c3ccc(N(C)C)cc3)C[C@@]21C (stereo in doubt) [Compound 30, 11-(4-Dimethylamino-phenyl)-17-hydroxy-17-(3-methoxy-prop-1-ynyl)-13-methyl-1,2,8,11,12,13,14,15,16,17-decahydro-6H-7-oxa-cyclopenta[a]phenanthren-3-one]
pIC50 [1]: 6.22
pIC50 [2]: 6.50

CC#C[C@]1(O)CC[C@H]2[C@@H]3OCC4=CC(=O)CCC4=C3[C@@H](c3ccc(N(C)C)cc3)C[C@@]21C [Compound 1, 11-(4-Dimethylamino-phenyl)-17-hydroxy-13-methyl-17-prop-1-ynyl-1,2,8,11,12,13,14,15,16,17-decahydro-6H-7-oxa-cyclopenta[a]phenanthren-3-one]
pIC50 [1]: 8.29
pIC50 [2]: 7.06

CN(C)c1ccc([C@H]2C[C@@]3(C)[C@@H](CC[C@@]3(O)C#CC3CC3)[C@@H]3OCC4=CC(=O)CCC4=C32)cc1 [Compound 2, 17-Cyclopropylethynyl-11-(4-dimethylamino-phenyl)-17-hydroxy-13-methyl-1,2,8,11,12,13,14,15,16,17-decahydro-6H-7-oxa-cyclopenta[a]phenanthren-3-one]
pIC50 [1]: 8.02
pIC50 [2]: 7.48

CN(C)c1ccc([C@H]2C[C@@]3(C)[C@@H](CC[C@@]3(O)C#Cc3ccccc3)[C@@H]3OCC4=CC(=O)CCC4=C32)cc1 [Compound 3, 11-(4-Dimethylamino-phenyl)-17-hydroxy-13-methyl-17-phenylethynyl-1,2,8,11,12,13,14,15,16,17-decahydro-6H-7-oxa-cyclopenta[a]phenanthren-3-one]
pIC50 [1]: 8.86
pIC50 [2]: 6.52

Cc1ccc(C#C[C@]2(O)CC[C@H]3[C@@H]4OCC5=CC(=O)CCC5=C4[C@@H](c4ccc(N(C)C)cc4)C[C@@]32C)cc1 [Compound 7, 11-(4-Dimethylamino-phenyl)-17-hydroxy-13-methyl-17-p-tolylethynyl-1,2,8,11,12,13,14,15,16,17-decahydro-6H-7-oxa-cyclopenta[a]phenanthren-3-one]
pIC50 [1]: 8.80
pIC50 [2]: 7.66

CN(C)c1ccc([C@H]2C[C@@]3(C)[C@@H](CC[C@@]3(O)C#Cc3ccc(F)cc3)[C@@H]3OCC4=CC(=O)CCC4=C32)cc1 [Compound 8, 11-(4-Dimethylamino-phenyl)-17-(4-fluoro-phenylethynyl)-17-hydroxy-13-methyl-1,2,8,11,12,13,14,15,16,17-decahydro-6H-7-oxa-cyclopenta[a]phenanthren-3-one]
pIC50 [1]: 9.57
pIC50 [2]: 7.42

CN(C)c1ccc([C@H]2C[C@@]3(C)[C@@H](CC[C@@]3(O)C#Cc3ccc(C(F)(F)F)cc3)[C@@H]3OCC4=CC(=O)CCC4=C32)cc1 [Compound 9]
pIC50 [1]: 9.13
pIC50 [2]: 6.95

CN(C)c1ccc([C@H]2C[C@@]3(C)[C@@H](CC[C@@]3(O)C#Cc3ccc(Br)cc3)[C@@H]3OCC4=CC(=O)CCC4=C32)cc1 [Compound 11, 17-(4-Bromo-phenylethynyl)-11-(4-dimethylamino-phenyl)-17-hydroxy-13-methyl-1,2,8,11,12,13,14,15,16,17-decahydro-6H-7-oxa-cyclopenta[a]phenanthren-3-one]
pIC50 [1]: 9.03
pIC50 [2]: 7.50

CN(C)c1ccc([C@H]2C[C@@]3(C)[C@@H](CC[C@@]3(O)C#Cc3ccc(Cl)cc3)[C@@H]3OCC4=CC(=O)CCC4=C32)cc1 [Compound 12, 17-(4-Chloro-phenylethynyl)-11-(4-dimethylamino-phenyl)-17-hydroxy-13-methyl-1,2,8,11,12,13,14,15,16,17-decahydro-6H-7-oxa-cyclopenta[a]phenanthren-3-one]
pIC50 [1]: 9.21
pIC50 [2]: 7.36

CN(C)c1ccc([C@H]2C[C@@]3(C)[C@@H](CC[C@@]3(O)C#Cc3ccc(C#N)cc3)[C@@H]3OCC4=CC(=O)CCC4=C32)cc1 [Compound 14, 4-[11-(4-Dimethylamino-phenyl)-17-hydroxy-13-methyl-3-oxo-1,2,3,6,8,11,12,13,14,15,16,17-dodecahydro-7-oxa-cyclopenta[a]phenanthren-17-ylethynyl]-benzonitrile]
pIC50 [1]: 8.44
pIC50 [2]: 7.38
